In publication PMC10977697 (PLOS ONE, 2024) one finds S/N data, which are given here for 22 substances.

Where no end group is shown, it is not given here.

The subject of the experiment is EpCAM. The experiment in a line: Spot phage ELISA, EpCAM. Conditions: spot phage ELISA signal-to-noise on EpCAM. In kind it is binding, human.
“GPTQSHYGQCGGQGYYGAIMCSGTTCQWEPARKSQCLPGAS (disulfide (positions not given here)) [EpCAM CBD 31]” registered a S/N of 15.3. Take “GCPRILMRCKQDSDCHAFCG (disulfide (positions not given here)) [EpCAM EET I-II 30]”: the S/N is 17.5. Take “GPTQSHYGQCGGTGYVGYTRCSGTTCQTVPAVMSQCLPGAS (disulfide (positions not given here)) [EpCAM CBD 16]”: the S/N is 18.9.

In turn, “GCPRILMRCKQDSDCLPVCG (disulfide (positions not given here)) [EpCAM EET I-II 17]” returned a S/N of 19.8. Then “GPTQSHYGQCGGRGYPGAVVCSGTTCQYAVVPHSQCLPGAS (disulfide (positions not given here)) [EpCAM CBD 14]”, with 19.4; and “GPTQSHYGQCGGRGYPGRMVCSGTTCQYVAPMISQCLPGAS (disulfide (positions not given here)) [EpCAM CBD 27]”, with 16.6; and “GPTQSHYGQCGGLGYTGAIVCSGTTCQWKQLMRSQCLPGAS (disulfide (positions not given here)) [EpCAM CBD 24]”, with 16.9. Then “GCPRILMRCKQDSDCLAGCVCWPGWPCG (disulfide (positions not given here)) [EpCAM EET I-II 19]”, with 19.6; and “GPTQSHYGQCGGVGYHGMIVCSGTTCQWKPSVYSQCLPDAS (disulfide (positions not given here)) [EpCAM CBD 76]”, with 7.6.

“GPTQSHYGQCGGGGYIGAMPCSGTTCQPVRIP*SQCLPGAS (disulfide) [EpCAM CBD 26]” had a S/N of 16.6. With “GPTQSHYGQCGGTGYVGMFKCSGTTCQYVYSSASQCLPGAS (disulfide (positions not given here)) [EpCAM CBD 67]”, the S/N was found to be 8.5.

Substance “GPTQSHYGQCGGKGYNGYFVCSGTTCQWKAKTDSQCLPGAS (disulfide (positions not given here)) [EpCAM CBD 15]” showed a S/N of 19.3. For “GCPRILMRCKQDSDCHPVCG (disulfide (positions not given here)) [EpCAM EET I-II 20]”, the S/N is reported as 19.5.

Substance “GPTQSHYGQCGGSGYKGAIKCSGTTCQLVTVHVSQCLPGAS (disulfide (positions not given here)) [EpCAM CBD 46]” registered a S/N of 10.7. The result for “GCPRILMRCKQDSDCLALCCNERNICG (disulfide (positions not given here)) [EpCAM EET I-II 18]” reads 19.7; that for “GPTQSHYGQCGGFGYIGVVRCSGTTCQPHQYFRSQCLPGAS (disulfide (positions not given here)) [EpCAM CBD 32]”, 15.1. On to “GPTQSHYGQCGGQGYHGYIMCSGTTCQYYTPYTSQCLPGAS (disulfide (positions not given here)) [EpCAM CBD 68]”, for which the S/N is 8.5. With “GPTQSHYGQCGGMGYKGIMCSGTTCQHAYIFRSQCLPGAS (disulfide (positions not given here)) [EpCAM CBD 49]”, the S/N is reported as 10.2. The result for “GPTQSHYGQCGGEGYLGALRCSGTTCQYTQIKPSQCLPGAS (disulfide (positions not given here)) [EpCAM CBD 8]” reads 21.8.

For “GPTQSHYGQCGGYVGAIMCSGTTCQFQHVKQSQCLPGAS (disulfide (positions not given here)) [EpCAM CBD 38]”, the S/N came to 12.9. The result for “GCPRILMRCKQDSDCQPICG (disulfide (positions not given here)) [EpCAM EET I-II 21]” reads 19.1; that for “GPTQSHYGQCGGPGYLGVIVCSGTTCQYQLRPTSQCLPGAS (disulfide (positions not given here)) [EpCAM CBD 70]”, 8.4.
